Converted amounts (≈) assume the structure as drawn.
Columns and labels:
HT-29 (colon carcinoma) = assay: MTS cell viability assay, HT-29; type: cell-based; conditions: Homo sapiens, 72 h
Description: (§1) All treatments were performed in triplicate. […] Cells were incubated at 37° C. for 72 h.

Daoy (glioblastoma) [1] = assay: MTS cell viability assay, Daoy; conditions: Homo sapiens, Daoy, 72 h, read-out: IC50 Daoy
LN-229 (glioblastoma) = assay: MTS cell viability assay, LN-229; type: cell-based; conditions: Homo sapiens, 72 h
Description: as §1

SK-MEL-2 (melanoma) [2] = tested on: SK-MEL-2 (melanoma)
[3] = tested on: OVCAR-3 (ovarian carcinoma); assay: MTS cell viability assay, OVCAR-3; type: cell-based; conditions: Homo sapiens, 72 h
Description: as §1

Daoy (glioblastoma) [4] = tested on: Daoy (glioblastoma)
SK-MEL-2 (melanoma) [5] = assay: MTS cell viability assay, SK-MEL-2; conditions: Homo sapiens, SK-MEL-2, 72 h, read-out: IC50 SK-MEL-2
A-375 (melanoma) = assay: MTS cell viability assay, A-375; type: cell-based; conditions: Homo sapiens, 72 h
Description: as §1

MCF-7 (breast carcinoma) = assay: MTS cell viability assay, MCF-7; type: cell-based; conditions: Homo sapiens, MCF7, 72 h
Description: as §1

SK-MEL-2 = assay: Annexin-V assay (apoptosis versus necrosis); type: cell-based; conditions: for selective apoptosis and dose dependence (in words): cell line not stated, above optimal dose cellular damage and non-apoptotic cell death
Description: Cells were plated (8.75×10^5 cells/6 cm. diameter tissue culture plates), the evening before treatment, in 4 mL volume per plate. This cell density is equivalent to the cell density used in the MTS and Caspase assays (1×10^4 cells/well (96-well plate). Drug solutions were prepared, immediately prior to cell treatment, in the same as described for caspase assay
Growth media alone (no DMSO or drug) was added to a plate containing cells to measure the baseline-Annexin-V reactivity and vehicle (DMSO) alone control solutions were also prepared to monitor Annexin-V reactivity from DMSO. Cells were incubated at 37° C. for 8 h. Growth media (3 mL) was removed from each plate and added to a 15 mL conical tube containing 0.333 mL FCS (final FCS concentration of 10%). The media was saved to include any apoptotic/dead cells that may have detached from the plate during drug treatment. FCS was added to the media to prevent further cell damage and improve the efficiency of cell pelleting during subsequent centrifugation steps (empirical observation). Adherent cells were rinsed once with PBS and 1 mL of trypsin was added. Plates were rotated several times to assure coating of the entire surface with trypsin which was then removed. Plates were incubated at 37° C. for 4-5 min. Trypsinized cells were re-suspended in the saved media for each sample. Cell suspension was placed back into 15 mL tubes, which were then cooled on ice. Cells were re-suspended by pipetting 7-8 times. The tubes were centrifuged at 130×g for 5 min at 4° C. The resulting cell pellets were re-suspended in the ice cold 1 mL of 1× Nexin Buffer (Guava Nexin kit, Guava Technologies) and transferred to 1.5 mL conical microcentrifuge tubes to rinse cells with residual growth media. This procedure was repeated by centrifugation of cells at 130×g for 5 min, at 4° C. Re-suspension of the resulting cell pellet in 50 μL Nexin Staining Solution (Guava Nexin kit, Guava Technologies) was followed by incubation on ice, in the dark, for 20 min. Guava Samples were analyzed immediately on the Guava flow cytometer, using the Guava Nexin software package (see Guava user's manual and Guava Nexin kit protocol on data acquisition and analysis protocols).

[6] = tested on: SK-MEL-2, A-375, Daoy, LN-229, OVCAR-3, HT-29, MCF-7 cell lines; type: cell-based
Description: as §1

SK-MEL-2 cells = assay: Caspase activation assay, SK-MEL-2; type: cell-based; conditions: for caspase activating property compared with betulinic acid (1): SK-MEL-2, 5, 15, 50 μM, 2-24 h, absence of FBS
Description: All treatments were performed in duplicate. […] Cells were incubated at 37° C. for 8 h. Caspase assay reagent (per 96-well plate) was prepared according to manufacturer's instructions (Homogeneous Caspases Assay, fluorometric, Roche) by combining 6.3 mL Incubation Buffer with 0.7 mL of Substrate Stock Solution. Caspase assay reagent (70 μL) was added to each well; the plate was gently shaken by hand for 15-20 seconds and incubated at 37° C. for 4 h.
Fluorescent emission was measured at 535 nm on a plate reader using the “homogeneous caspase” program (excitation Wavelength=490 nm, emission wavelength=535 nm). Duplicate wells for each treatment were averaged following background (no cells) subtraction (emission 535 nm value from all experimental emission 535 nm values) for each drug concentration.
DMSO treatment represented baseline caspase activation in the absence of drug. The percent changes in caspase activity were plotted on the y-axis for each drug treatment.
Caspase activation assays were conducted to further characterize the mode of cell death. A treatment time and dose at which maximum caspase activation was observed prior to massive cell destruction would be indicative of apoptosis induction. SK-MEL-2 cells were treated with 5, 15, and 50 μM of the compound for 2, 4, 6, 8, 16, and 24 h in the absence of FBS (Fetal Bovine Serum).

Structure (SMILES): C=C(C)[C@@H]1CC[C@]2(CNCC(=O)OC)CC[C@]3(C)[C@H](CC[C@@H]4[C@@]5(C)CC[C@H](OC(C)=O)C(C)(C)[C@@H]5CC[C@]43C)[C@@H]12 [Compound 72, methyl 2-(((1R,3aS,5aR,5bR,7aR,9S,1iaR,11bR,13aR,13bR)-9-acetoxy-5a,5b,8,8,11a-pentamethyl-1-(prop-1-en-2-yl)icosahydro-1H-cyclopenta[a]chrysen-3a-yl)methylamino)acetate]
- IC50 (HT-29 (colon carcinoma)): > 75 µg/mL
- IC50 (Daoy (glioblastoma) [1]): 6 µg/mL (≈ 10.8 µM)
- IC50 (LN-229 (glioblastoma)): > 75 µg/mL
- improvement in cytotoxicity relative to betulinic acid 1 in SK-MEL-2 (SK-MEL-2 (melanoma) [2]): greater than 5 fold
- IC50 [3]: 36 µg/mL (≈ 64.8 µM)
- improvement in cytotoxicity relative to betulinic acid 1 in Daoy (Daoy (glioblastoma) [4]): greater than 5 fold
- IC50 (SK-MEL-2 (melanoma) [5]): 6 µg/mL (≈ 10.8 µM)
- IC50 (A-375 (melanoma)): 6 µg/mL (≈ 10.8 µM)
- IC50 (MCF-7 (breast carcinoma)): 75 µg/mL (≈ 135 µM)

Structure (SMILES): C=C(C)[C@@H]1CC[C@]2(C(=O)O)CC[C@]3(C)[C@H](CC[C@@H]4[C@@]5(C)CC[C@H](OC(=O)/C=C/c6ccc(OC(C)=O)c(OC(C)=O)c6)C(C)(C)[C@@H]5CC[C@]43C)[C@@H]12 [Compound 24, (1R,3aS,5aR,5bR,7aR,9S,11aR,11bR,13aR, 13bR)-9-((E)-3-(3,4-diacetoxyphenyl)acryloyloxy)-5a,5b,8,8,11a-pentamethyl-1-(prop-1-en-2-yl)icosahydro-1H-cyclopenta[a]chrysene-3a-carboxylic acid]
- improvement in cytotoxicity relative to betulinic acid 1 in SK-MEL-2 (SK-MEL-2 (melanoma) [2]): greater than 5 fold

Structure (SMILES): C=C(C)[C@@H]1CC[C@]2(C(=O)O)CC[C@]3(C)[C@H](CC[C@@H]4[C@@]5(C)CC[C@H](OC(=O)/C=C/c6ccc(O)c(O)c6)C(C)(C)[C@@H]5CC[C@]43C)[C@@H]12 [Compound 25, (1R,3aS,5aR,5bR,7aR,9S,11aR,11bR,13aR, 13bR)-9-((E)-3-(3,4-dihydroxyphenyl)acryloyloxy)-5a,5b,8,8,11a-pentamethyl-1-(prop-1-en-2-yl)icosahydro-1H-cyclopenta[a]chrysene-3a-carboxylic acid]
- improvement in cytotoxicity relative to betulinic acid 1 in SK-MEL-2 (SK-MEL-2 (melanoma) [2]): greater than 5 fold

Structure (SMILES): C=C(C)[C@@H]1CC[C@]2(C(=O)O)CC[C@]3(C)[C@H](CC[C@@H]4[C@@]5(C)CCC(NCCNC(=O)OC(C)(C)C)C(C)(C)[C@@H]5CC[C@]43C)[C@@H]12 (stereo partly drawn) [Compound 79, (1R,3aS,5aR,5bR,7aR,11aR,11bR,13aR,13bR)-9-(2-(tert-butoxycarbonylamino)ethylamino)-5a,5b,8,8,11a-pentamethyl-1-(prop-1-en-2-yl)icosahydro-1H-cyclopenta[a]chrysene-3a-carboxylic acid]
- selective apoptosis and dose dependence (in words) (SK-MEL-2): induced selective apoptosis at an optimal dose

Structure (SMILES): C=C(C)[C@@H]1CC[C@]2(COC3CCCCO3)CC[C@]3(C)[C@H](CC[C@@H]4[C@@]5(C)CC6=C(ON(O)C6)C(C)(C)[C@@H]5CC[C@]43C)[C@@H]12 (stereo partly drawn) [Compound 32, (1R,3aS,5aR,5bR,7aR,12aR,12bR,14aR,14bR)-1-isopropenyl-5a,5b,8,8,12a-pentamethyl-3a-[(tetrahydro-2H-pyran-2-yloxy)methyl]-1,2,3,3a,4,5,5a,5b,6,7,7a,8,11,12,12a,12b,13,14, 14a,14b-icosahydro-10H-cyclopenta[7,8]chryseno[3,2-d]isoxazol-10-ol]
- IC50 (HT-29 (colon carcinoma)): 8 µg/mL (≈ 14.1 µM)
- IC50 (Daoy (glioblastoma) [1]): 6 µg/mL (≈ 10.6 µM)
- IC50 (LN-229 (glioblastoma)): 6 µg/mL (≈ 10.6 µM)
- cytotoxic potency across the cell line panel (in words) [6]: potent across the entire cell line panel
- IC50 [3]: 6 µg/mL (≈ 10.6 µM)
- selective apoptosis and dose dependence (in words) (SK-MEL-2): induced selective apoptosis at an optimal dose
- IC50 (SK-MEL-2 (melanoma) [5]): 5 µg/mL (≈ 8.81 µM)
- caspase activating property compared with betulinic acid (1) (SK-MEL-2 cells): more robust caspase activating property than betulinic acid
- IC50 (A-375 (melanoma)): 6 µg/mL (≈ 10.6 µM)
- IC50 (MCF-7 (breast carcinoma)): 6 µg/mL (≈ 10.6 µM)

Structure (SMILES): C=C(C)[C@@H]1CC[C@]2(CO)CC[C@]3(C)[C@H](CC[C@@H]4[C@@]5(C)CCC(NCCc6ccc(O)cc6)C(C)(C)[C@@H]5CC[C@]43C)[C@@H]12 (stereo partly drawn) [Compound 75, 4-(2-((1R,3aS,5aR,5bR,7aR,11aR,11bR,13aR,13bR)-3a-(hydroxymethyl)-5a,5b,8,8,11a-pentamethyl-1-(prop-1-en-2-yl)icosahydro-1H-cyclopenta[a]chrysen-9-ylamino)ethyl)phenol]
- selective apoptosis and dose dependence (in words) (SK-MEL-2): induced selective apoptosis at an optimal dose
- caspase activating property compared with betulinic acid (1) (SK-MEL-2 cells): more robust caspase activating property than betulinic acid

Structure (SMILES): C=C(C)[C@@H]1CC[C@]2(CO)CC[C@]3(C)[C@H](CC[C@@H]4[C@@]5(C)C=C(C#N)C(=O)C(C)(C)[C@@H]5CC[C@]43C)[C@@H]12 [Compound 38, (1R,3aS,5aR,5bR,7aR,11aR,11bR,13aR,13bR)-3a-(hydroxymethyl)-5a,5b,8,8,11a-pentamethyl-9-oxo-1-(prop-1-en-2-yl)-2,3,3a,4,5,5a,5b,6,7,7a, 8,9,11a,11b,12,13,13a,13b-octadecahydro-1H-cyclopenta[a]chrysene-10-carbonitrile]
- IC50 (HT-29 (colon carcinoma)): 8 µg/mL (≈ 17.3 µM)
- IC50 (Daoy (glioblastoma) [1]): 8 µg/mL (≈ 17.3 µM)
- IC50 (LN-229 (glioblastoma)): 6 µg/mL (≈ 12.9 µM)
- cytotoxic potency across the cell line panel (in words) [6]: potent across the entire cell line panel
- IC50 [3]: 7 µg/mL (≈ 15.1 µM)
- apoptosis versus necrosis by the Annexin assay (in words) (SK-MEL-2; SK-MEL-2): inducing apoptosis over necrosis robustly
- rank as apoptosis inducer within the collection (in words) (SK-MEL-2; caspase and Annexin assays, SK-MEL-2): most potent apoptosis inducer
- IC50 (SK-MEL-2 (melanoma) [5]): 6 µg/mL (≈ 12.9 µM)
- caspase activation in SK-MEL-2 (in words) (SK-MEL-2 cells; SK-MEL-2): activated caspases
- caspase activating property compared with betulinic acid (1) (SK-MEL-2 cells): more robust caspase activating property than betulinic acid
- IC50 (A-375 (melanoma)): 6 µg/mL (≈ 12.9 µM)

Structure (SMILES): C=C(C)[C@@H]1CC[C@]2(CNCCO)CC[C@]3(C)[C@H](CC[C@@H]4[C@@]5(C)CC[C@H](O)C(C)(C)[C@@H]5CC[C@]43C)[C@@H]12 [Compound 69, (1R,3aS,5aR,5bR,7aR,9S,11aR,11bR,13aR,13bR)-3a-((2-hydroxyethylamino)methyl)-5a,5b,8,8,11a-pentamethyl-1-(prop-1-en-2-yl)icosahydro-1H-cyclopenta[a]chrysen-9-ol]
- IC50 (HT-29 (colon carcinoma)): 2 µg/mL (≈ 4.12 µM)
- IC50 (Daoy (glioblastoma) [1]): < 2 µg/mL
- improvement in cytotoxicity relative to betulinic acid 1 in SK-MEL-2 (SK-MEL-2 (melanoma) [2]): greater than 5 fold
- cytotoxic potency across the cell line panel (in words) [6]: potent across the entire cell line panel
- IC50 [3]: < 10 µg/mL
- improvement in cytotoxicity relative to betulinic acid 1 in Daoy (Daoy (glioblastoma) [4]): greater than 5 fold
- IC50 (SK-MEL-2 (melanoma) [5]): 5 µg/mL (≈ 10.3 µM)
- IC50 (A-375 (melanoma)): 4 µg/mL (≈ 8.23 µM)
- IC50 (MCF-7 (breast carcinoma)): < 10 µg/mL
